# Test results published in PMC4207771, “Identification and Characterization of Novel Renal Sensory Receptors” (PLoS ONE, 2014).
# Assays:
# Olfr691 = target: T1, Olfr691 (Mus musculus, UniProt Q8VGW5); assay: dual-luciferase (cAMP/CREB reporter) ligand screen, Olfr691 in HEK293T cells; format: cell-based; details: for Olfr691 response in dual-luciferase assay: chemicals tested individually, screened at 500uM (* also at 100uM)
# T1 construct: Lucy (N); expressed in transfected cells; host or cells: HEK293T, co-transfected with RTP1S
# T1 sequence (Q8VGW5 1-322): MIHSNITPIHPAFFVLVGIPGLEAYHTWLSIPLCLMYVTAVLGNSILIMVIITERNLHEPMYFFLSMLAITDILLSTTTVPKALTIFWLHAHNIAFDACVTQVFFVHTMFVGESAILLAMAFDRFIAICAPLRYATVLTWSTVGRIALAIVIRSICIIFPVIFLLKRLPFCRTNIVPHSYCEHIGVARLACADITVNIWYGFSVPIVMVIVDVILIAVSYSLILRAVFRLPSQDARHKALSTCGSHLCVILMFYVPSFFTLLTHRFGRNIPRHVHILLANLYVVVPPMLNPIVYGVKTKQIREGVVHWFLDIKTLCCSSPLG
# Olfr545 = assay: dual-luciferase (cAMP/CREB reporter) ligand screen, Olfr545 in HEK293T cells; format: cell-based, mouse; set-up: key to Olfr545 response in dual-luciferase assay: ‘+’ or ‘–‘ in each column indicates if the olfactory receptor responded or had no effect to that specific chemical; -: ‘+’ or ‘–‘ in each column indicates if the olfactory receptor responded or had no effect to that specific chemical; details: chemicals tested individually, screened at 500uM (* also at 100uM)
# Olfr693 = assay: dual-luciferase (cAMP/CREB reporter) ligand screen, Olfr693 in HEK293T cells; format: cell-based, mouse; set-up: key: ‘+’ or ‘–‘ in each column indicates if the olfactory receptor responded or had no effect to that specific chemical; -: ‘+’ or ‘–‘ in each column indicates if the olfactory receptor responded or had no effect to that specific chemical; details: chemicals tested individually, screened at 500uM (* also at 100uM)
# Olfr99 = assay: dual-luciferase (cAMP/CREB reporter) ligand screen, Olfr99 in HEK293T cells; format: cell-based, mouse; set-up: key: ‘+’ or ‘–‘ in each column indicates if the olfactory receptor responded or had no effect to that specific chemical; -: ‘+’ or ‘–‘ in each column indicates if the olfactory receptor responded or had no effect to that specific chemical; details: chemicals tested individually, screened at 500uM (* also at 100uM)
# Olfr31 = target: T2, Olfr31 (Mus musculus, UniProt Q3KPA7); assay: dual-luciferase (cAMP/CREB reporter) ligand screen, Olfr31 in HEK293T cells; format: cell-based; details: chemicals tested individually, screened at 500uM (* also at 100uM)
# T2 construct: expressed in transfected cells; host or cells: HEK293T, co-transfected with RTP1S
# T2 sequence (Q3KPA7 1-317): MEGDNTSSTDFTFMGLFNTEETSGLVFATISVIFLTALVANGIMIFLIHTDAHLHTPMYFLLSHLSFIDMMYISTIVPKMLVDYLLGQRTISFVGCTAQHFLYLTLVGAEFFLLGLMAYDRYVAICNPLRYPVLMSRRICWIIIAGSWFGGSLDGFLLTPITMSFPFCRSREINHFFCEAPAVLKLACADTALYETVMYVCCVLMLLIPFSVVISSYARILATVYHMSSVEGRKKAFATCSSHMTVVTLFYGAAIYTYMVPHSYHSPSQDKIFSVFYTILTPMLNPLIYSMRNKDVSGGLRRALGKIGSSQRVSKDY
Olfr691 response in dual-luciferase assay (Olfr691),Olfr31 response in dual-luciferase assay (Olfr31),Compound,Olfr545 response in dual-luciferase assay (Olfr545),Olfr693 response in dual-luciferase assay (Olfr693),Olfr99 response in dual-luciferase assay (Olfr99),Olfr691 response (in words) (Olfr691)
-,-,C=CC(C)(O)CCC=C(C)CCC=C(C)C (mixture of isomers) [nerolidol],-,-,-,
-,-,"C=C(C)C1CC=C(C)CC1 (single isomer, unassigned; (+)) [(+)-Limonene]",-,-,-,
-,-,"Fc1ccc(F)c(F)c1 [1,2,4 trifluorobenzene]",-,-,-,
-,-,"COc1cccc(OC)c1 [1,3-Dimethoxybenzene]",-,-,-,
-,-,"SCCCCS [1,4-butanedithiol]",-,-,-,
-,-,"O=C1CCC(=O)CC1 [1,4-cyclohexanedione]",-,-,-,
-,-,"SCCCCCCS [1,6-hexanedithiol]",-,-,-,
-,-,CCCCCCCO [1-Heptanol],-,-,-,
-,-,C=CC(=O)CCCCC [1-Octen-3-one],-,-,-,
-,-,CCCCCCCCO [1-octanol],-,-,-,
-,-,"CC(O)C(C)O (stereo not drawn) [2,3-butanediol]",-,-,-,
-,,"C[C@]12CC[C@@H]3c4ccc(O)cc4CC[C@H]3[C@@H]1CC[C@@H]2O [estradiol, reference compound]",-,-,-,
,,O=CO [formate],,,,not including
,,CC(C)CC(=O)O [isovaleric acid],-,-,-,

Compound,Olfr691 response in dual-luciferase assay (Olfr691),Olfr31 response in dual-luciferase assay (Olfr31),Olfr545 response in dual-luciferase assay (Olfr545),Olfr693 response in dual-luciferase assay (Olfr693),Olfr99 response in dual-luciferase assay (Olfr99),Olfr691 response (in words) (Olfr691)
"SCCS [1,2-ethanedithiol]",-,-,-,-,-,
CCC(C)S (stereo not drawn) [1-methyl-1-propanethiol],-,-,-,-,-,
"CCCC(=O)C(C)=O [2,3-hexadione]",-,-,-,-,-,
